{"source": "patent US7294651B2", "about": "(priority 2001, dated 2007)", "key": {"S. aureus (MN8)": {"test_system": "S. aureus (MN8)", "format": "cell-based"}, "TSST-1": {"test_system": "TSST-1", "format": "cell-based, S. aureus", "design": "ng TSST-1 per CFU: scale not given here"}}, "note": "“And” between values parts separate entries of the source, which are not always exact repeats. Equal entries are not always repeated."}
{"molecule": "CC(=O)/C=C/C1=C(C)CCCC1(C)C", "note": "[Beta-ionone]", "values": [{"measurement": "CFU/mL", "setting": "S. aureus (MN8)", "value": "1.8E+08", "unit": "CFU/mL"}, {"measurement": "Optical Density", "setting": "S. aureus (MN8)", "value": 0.688}, {"measurement": "Reduction of Toxin %", "setting": "TSST-1", "value": 100, "unit": "%"}, {"measurement": "ng TSST-1 per OD Unit", "setting": "TSST-1", "value": "none"}]}
{"molecule": "CC1CCC(C(C)C)C(O)C1", "note": "(centres unmarked) [Menthol, menthol]", "values": [{"measurement": "effect on the growth of S. aureus cells", "setting": "S. aureus (MN8)", "value": "minimal, if any, effect"}]}
{"molecule": "myreth-3-myristate [Cetiol]", "values": [{"measurement": "CFU/mL × 10^8", "setting": "S. aureus (MN8)", "value": "4.2 CFU/mL × 10^8 and 5.9 CFU/mL × 10^8 and 5.0 CFU/mL × 10^8"}, {"measurement": "ng TSST-1 per CFU", "setting": "TSST-1", "value": "371 and 196 and 200"}, {"measurement": "ng TSST-1 per mL", "setting": "TSST-1", "value": "1556 ng TSST-1 per mL and 1147 ng TSST-1 per mL and 989 ng TSST-1 per mL"}]}
